Results from article PMC5786021, “A dynamic allosteric pathway underlies Rad50 ABC ATPase function in DNA repair” (Scientific Reports, 2018).
Like-named read-outs stand apart in the source and are kept apart here. Values belong to the molecule of their own block, whether it stands above or below them.

How the values were obtained:
Mre11_2-Rad50^NBD2 = molecular target: T1, Mre11_2-Rad50^NBD2 (Pyrococcus furiosus, UniProt P58301, DEL196-708); assay: 2-aminopurine DNA exonuclease fluorescence; assay type: biochemical; conditions: 1 mM AMP-PNP, 1 mM MnCl2, 5 mM MgCl2, 50 mM Tris pH 7.5, 60 °C; allosteric via Rad50
T1 construct: about 160 kDa; E. coli; with DNA double-strand break repair protein Mre11

Mre11^HLH-Rad50^NBD [1] = molecular target: T2, Mre11^HLH-Rad50^NBD (Pyrococcus furiosus, UniProt P58301, DEL196-708); assay: fluorescence polarization competition with BODIPY FL ATP; assay type: binding
T2 construct: Mre11 helix-loop-helix aa344-426; His and NusA-His tags removed with TEV; E. coli; monomeric without nucleotide; with DNA double-strand break repair protein Mre11

Mre11^HLH-Rad50^NBD [2] = molecular target: T3, Mre11^HLH-Rad50^NBD (Pyrococcus furiosus, UniProt P58301, DEL196-708/R805E); assay: as above; assay type: binding
T3 construct: Mre11 helix-loop-helix aa344-426; His and NusA-His tags removed with TEV; E. coli; monomeric without nucleotide; with DNA double-strand break repair protein Mre11
T3 sequence (P58301 709-882 R805E, other chains not shown): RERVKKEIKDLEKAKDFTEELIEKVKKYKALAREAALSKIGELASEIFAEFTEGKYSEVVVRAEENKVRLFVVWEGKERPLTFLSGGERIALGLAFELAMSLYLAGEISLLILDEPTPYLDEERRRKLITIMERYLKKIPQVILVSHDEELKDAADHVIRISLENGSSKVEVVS
T3 sequence (P58301 1-195, stated change not applied, other chains not shown): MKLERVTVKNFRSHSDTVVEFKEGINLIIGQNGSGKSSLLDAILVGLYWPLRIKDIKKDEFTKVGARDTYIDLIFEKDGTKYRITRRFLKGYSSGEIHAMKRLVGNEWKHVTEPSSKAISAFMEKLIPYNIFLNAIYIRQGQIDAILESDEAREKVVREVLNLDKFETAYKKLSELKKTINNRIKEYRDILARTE

T2 sequence (P58301 709-882, stated change not applied, other chains not shown): as the sequence (P58301 709-882 R805E, other chains not shown) above, with E97R counted along it
T2 sequence (P58301 1-195, stated change not applied, other chains not shown): as the sequence (P58301 1-195, stated change not applied, other chains not shown) above
T1 sequence (P58301 709-882, stated change not applied): as the sequence (P58301 709-882 R805E, other chains not shown) above, with E97R counted along it
T1 sequence (P58301 1-195, stated change not applied): as the sequence (P58301 1-195, stated change not applied, other chains not shown) above

Compound: Nc1ncnc2c1ncn2[C@@H]1O[C@H](COP(=O)(O)OP(=O)(O)NP(=O)(O)O)[C@@H](O)[C@H]1O [AMP-PNP]
reduction in Mre11 exonuclease activity (Mre11_2-Rad50^NBD2): non-hydrolyzable ATP analog AMP-PNP resulted in a dramatic reduction in exonuclease activity

Ki (Mre11^HLH-Rad50^NBD [1]; read-out: KI,ADP): 6.5 µM
Compound: Nc1ncnc2c1ncn2[C@@H]1O[C@H](COP(=O)(O)OP(=O)(O)O)[C@@H](O)[C@H]1O [ADP]

Ki (Mre11^HLH-Rad50^NBD [1]): 9.8 µM
Ki (Mre11^HLH-Rad50^NBD [2]): 3 µM
Compound: Nc1ncnc2c1ncn2[C@@H]1O[C@H](COP(=O)(O)OP(=O)(O)OP(=O)(O)O)[C@@H](O)[C@H]1O [ATP]
